Laboratory results reported in patent US7910586B2, “Compositions and methods for prevention and treatment of amyloid-β peptide-related disorders” (The Rockefeller University, priority 2002, dated 2011).
pIC50: −log10 of the molar value. Where a name gives a salt, the structure may show the parent alone.

Assays:
γ-secretase = test: Isolated γ-secretase activity: Aβ release (ELISA) from membranes of N2a cells expressing recombinant C99; type: biochemical, mouse; settings: membranes from N2a cells expressing C99, with ATP; FIG. 4
Procedure: For the assay of isolated γ-secretase activity, membranes were isolated from N2a cells expressing a recombinant γ-secretase substrate, C99, according to the methods of Zhang et al. (2001, Biochemistry 40: 5049-5055). […] Also, to determine whether ATP was primarily responsible for stimulating γ-secretase activity, the previous energy regenerating system was substituted with one designed to sustain concentrations of ATP alone but not GTP. Aβ release from isolated membranes was determined by ELISA (Biosource International, Camarillo, Calif.).

[1] = system: rat embryonic cortical neurons; test: Aβ production in rat primary embryonic cortical neuronal cultures; type: cell-based; settings: for production of Aβ peptides: normal rat primary neuronal cell cultures; for concentration at which significant reductions in Aβ were observed: primary cortical neuronal cultures, dose response, FIGS. 13 and 14
From the text: Cultures of rat embryonic cortical neurons were established from day 18 pregnant SD rats using standard techniques (Gasparini et al., 2001, J. Neurosci. 21(8):2561-2570).
The next day, cells were labeled with ^35S-methionine and cysteine for four hours in the presence of compounds as above. Media and cells were then harvested and subjected to immunoprecipitation with antibody 4G8, to detect Aβ and APP. The media was serially immunoprecipitated first with antibody 4G8 and then antibody 22C11, for detection of secreted Aβ, sAPPP and sAPPα. Immunoprecipitates were subjected to PAGE and resolved by autoradiography; APP metabolites were compared by densitometry.

mΔe-Notch = test: Notch cleavage in N2a cells transfected with mΔe-Notch; type: cell-based, mouse; settings: at levels that strongly inhibit Aβ-formation; FIGS. 17 and 18
From the text: N2a cells were transfected with a constitutively active truncated form of Notch, mouse “deleted-extracellular” Notch (mΔe-Notch), which supplies a direct substrate for γ-secretase (De Strooper et al., 1999, Nature 398: 518-522).

[2] = system: N2a cells expressing Swedish variant of human APP and the PS1 mutation; test: Mass spectrometry (Ciphergen ProteinChip, SELDI-TOF) of Aβ40 and Aβ42 in media from N2a cells; type: cell-based, mouse; settings: FIG. 5
Procedure: Mass spectrometry was carried out on media from N2a cells to detect Aβ40 and Aβ42 peptides using the CiphergenProteinChip System (Ciphergen Biosystems Inc., Fremont, Calif.), which is based on Seldi and time-of-flight mass spectrometry, using standard protocols as set out by the manufacturer. The experimental procedures were the same as those disclosed above for immunoprecipitation/Western blotting, without metabolic labeling. […] Aliquots of detergent treated media were contacted to a metal chip that was previously contacted with an antibody, such as 6E10. The antibody binds human APP metabolites, including Aβ, in the applied sample. Detection of bound antigen followed a laser pulse that dissociated antigen from antibody.
Aβ peptides were resolved graphically as peaks of various heights, situated on an x-axis denoting molecular mass. Thus, Aβ40 and Aβ42 were resolved separately at approximately 4333 and 4519 daltons, respectively. The relative heights or areas under the peaks in a given spectrum denoted the relative concentrations of the detected species. Peaks corresponding to the same species, as conveyed by molecular mass, were compared among different spectra, reflecting different samples, to measure relative quantities of Aβ among a set of samples.

[3] = system: wild-type 3T3 mouse fibroblasts; test: Aβ production in wild-type 3T3 mouse fibroblasts; type: cell-based; settings: 5 μM or 10 μM STI-571; 0.5 μM or 1.0 μM Compound 1; similar degree as in Abl−/− and N2a cells
Procedure: (§1) Abl knockout (Abl−/−) 3T3 mouse fibroblasts and wild-type 3T3 mouse fibroblasts (see Liu et al., 1996, Nature 384(6606):273-6) were grown separately and to confluence in 100 mm Corning tissue culture plates. These fibroblast cell lines are permanent cell lines. […] Several other plates were exposed to either 0.5 μM or 1.0 μM Compound 1 (dissolved in DMSO) or to DMSO without Compound 1.
(§2) For the above-described cell cultures, each of the drugs or control solvents was added to a standard culture medium (DMEM+10% FBS+pen/strep) at a dilution of 1:1000 and cultures were then incubated at 37° C. for 2 hours. The contacting of cell cultures and incubation with inhibitors and solvent, as described above, constituted “pretreatment” of cells.
(§3) The first culture medium was then removed and the cell cultures were rinsed with a second culture medium lacking methionine, cysteine and glutamate. The cell cultures were incubated with this culture medium for 30 minutes (to stimulate subsequent uptake of amino acids). Then the second culture medium was exchanged for fresh first culture medium containing ^35S-labeled methionine and cysteine (NEN Express label 50 μl/ml) and unlabeled glutamine (final concentration 2 mM) and with inhibitors as described above, and incubated for 4 hours at 37° C. […]

[4] = system: rat embryonic cortical neurons; test: Aβ production in rat primary embryonic cortical neuronal cultures; type: cell-based
[5] = system: N2a cells transfected with the human Swedish APP mutation; test: Aβ generation in N2a cells transfected with human Swedish APP and normal or ΔE9 presenilin 1 (immunoprecipitation, autoradiography, Western blot); type: cell-based, mouse; settings: for Aβ after one hour of treatment: 35S labeled N2a cells expressing human APP-Swedish
Procedure: N2a cells transfected with the human Swedish APP mutation, and with either normal human presenilin 1 or ΔE9 mutant presenilin 1 (PS1), were used for assays of compound effect on Aβ generation.
Media was added with compound concentration of 0, 10^−9, 10^−8, 10^−7 and 10^−6 M; cells were incubated overnight at 37° C. The next day, cells were incubated with ^35S-methionine and ^35S-cysteine for four hours in the presence of the compound as above.
Media and cells were separately harvested and subjected to immunoprecipitation with antibody 4G8 (Senetek, Napa, Calif.), which recognizes an epitope corresponding to residues 17-28 of Aβ. Antibody 4G8 immunoprecipitates Aβ from media, and Aβ plus full-length APP from cells. After removal of antibody 4G8 and bound Aβ from media, the supernatant was reacted with 22C11 (Chemicon International), an antibody that immunoprecipitates sAPPβ and sAPPα. Immunoprecipitates were subjected to PAGE and resolved by autoradiography according to standard methods. APP metabolites were compared by densitometry according to standard methods.
In other experiments, immunoprecipitation followed by Western blot analysis was carried out on unlabeled (no radioactive label) N2a cells, using standard methods and using 6E10 (Senetek, Napa, Calif.) or 22C11 antibodies for detection.
These immunoprecipitation experiments were repeated using a minimal treatment time, 1 hour instead of overnight.

brain Aβ40, Aβ42 and C99 = test: Brain Aβ and C99 in wild-type guinea pigs after intrathecal osmotic minipump treatment; type: in vivo, guinea pig; settings: 2.8 mg/kg, 7 days
Procedure: After 7 days of treatment, animals were sacrificed, and their brains homogenized in 25 mM Tris 7.5, 50 mM NaCl, 1 mM DTT, 5 mM EDTA, 1 mM EGTA, and 1× protease inhibitor cocktail (Complete™, Boehringer Biochemicals). Aliquots of brain homogenate were assayed for Aβ peptide by using a sandwich ELISA according the manufacturer's recommendations (Biosource International, Camarillo, Calif.) and for C99 by immunoprecipitation and Western blot analysis using standard methods.

[6] = system: Abl knockout (Abl−/−) 3T3 mouse fibroblasts; test: Aβ production in Abl knockout (Abl−/−) 3T3 mouse fibroblasts; type: cell-based; settings: 5 μM or 10 μM STI-571; 0.5 μM or 1.0 μM Compound 1; similar degree as in wild-type and N2a cells
Procedure: as §1, §2, §3

appearance of animals (brain Aβ40, Aβ42 and C99) | Compound | Aβ generation in isolated membranes (γ-secretase) | production of Aβ peptides [1] | concentration at which significant reductions in Aβ were observed [1] [µM] | secretion of soluble APP-α ([1]; primary neuronal cells cultured from rat brain, FIG. 9) | levels of Aβ in cells ([1]; rat cortical neurons) | levels of Aβ in media ([1]; rat cortical neurons, FIG. 8A, FIG. 10) | total cellular APP ([1]; rat cortical neurons, FIG. 9) | total sAPP ([1]; rat cortical neurons, FIG. 9) | cleavage of mΔe-Notch to form Notch intracellular domain (NICD) (mΔe-Notch) | Aβ40 level [2] | Aβ42 level [2] | Aβ production [3] | cytotoxicity [4] | Aβ after one hour of treatment ([5]; FIGS. 6 and 7) | pIC50 ([5]; N2a cells expressing APP and either normal human presenilin 1 or ΔE9 mutant presenilin 1, read-out: IC50 (inhibited total levels of Aβ by 50%)) | full-length βAPP levels (brain Aβ40, Aβ42 and C99; FIG. 16C) | Aβ production [6] | APP levels ([5]; intact N2a cells expressing Swedish variant of human APP, FIGS. 6 and 7)
healthy and active | CSc1cccc(Nc2ncc3cc(-c4c(Cl)cccc4Cl)c(=O)n(C)c3n2)c1 [Compound 1] | dose-dependent decrease | inhibit | 0.5 | consistent secretion | reduced | reduced | not reduced significantly | not reduced significantly | unaffected | dramatically reduced | dramatically reduced | inhibited | not cytotoxic | dose-dependent decrease | > 6.00 | do not change | inhibited | 
 | Cc1ccc(NC(=O)c2ccc(CN3CCN(C)CC3)cc2)cc1Nc1nccc(-c2cccnc2)n1 [STI-571, imatinib mesylate, reference compound] |  | inhibit | 5 |  |  |  |  |  |  |  |  | inhibited |  | dose-dependent decrease |  |  | inhibited | do not change
